Columns and labels:
[1] = target: human CB2 receptor (Homo sapiens (Human), UniProt P34972); assay: Membrane competition binding assay with [3H]-CP 55,940, CHO-CB2 membranes
Description: (§1) The cDNA clones for human HA-tagged CB1 and CB2 receptors were obtained from the Missouri S&T cDNA Resource Center (www.cdna.org) in cloning vector pcDNA3.1+. The vector containing the human CB2 receptor was transfected directly into CHO-KI cells obtained from ATCC. The HA-tagged human CB1 receptor sequence was subcloned into the pef4-V5-HisA vector with Kpn1 and Pme1 restriction enzymes and subsequently transfected into CHO-K1 cells. Cells were clonally isolated by limited dilution and screened by immunocytochemistry for expression of the HA tag.
(§2) Cells were maintained in DMEM/F12 media supplemented with 10% fetal bovine serum (FBS), 100 units/ml penicillin and 100 μg/ml streptomycin and 2 mM L-glutamine. Transfected cell lines were maintained with additional 150 ug/ml zeocin for pEF HA-CB1 transfected cells and 500 ug/ml G-418 for pcDNA HA-CB2 transfected cells (all reagents obtained from Invitrogen).
(§3) Cells were grown to confluence and harvested in ice cold phosphate buffered saline with 5 mM EDTA. Cells were spun at 200×g for 10 min and frozen at −80° C. until required. Cell pellets were thawed with cold 0.32 M sucrose and homogenised with a glass homogeniser. The homogenate was spun at 1000×g for 10 min at 4° C. and the supernatant spun in a Sorvall ultracentrifuge for 30 min at 100,000×g. The pellet was then washed in ice cold water and re-spun twice more. The final pellet was resuspended in 50 mM Tris pH 7.5, 0.5 mM EDTA. Protein concentration was determined using the Dc protein assay kit (BioRad, Hercules, Calif., USA).
(§4) Membranes (5-10 μg) were incubated with radioligand and a range of concentrations of test compounds in binding buffer (50 mM Tris pH 7.4, 5 mM MgCl2, 1 mM EDTA) with 0.5% (w/v) bovine serum albumin (BSA) (ICP Bio, New Zealand), at 30° C. for 60 min. Stock solutions of putative cannabinoid ligands were prepared in dimethyl sulfoxide to a concentration of 10 mM. Six different final concentrations of compounds were used ranging from 50 μM to 0.1 nM. […] Assays were terminated by addition of 2 ml ice cold binding buffer and filtration through GF/C filters (Whatman) pre-soaked in cold binding buffer, followed by two washes in the same buffer.
(§5) Radioactivity was determined by incubation of filters with Irgasafe scintillation fluid (PerkinElmer) and scintillation counting in a Wallac Trilux using Microbeta Trilux software. Data was analysed using the Prism 4.02 programme (GraphPad Software, San Deigo, Calif., USA).
(§6) All data was analyzed using Prism 4.02. For binding data the Ki was determined from IC50 values derived from competition binding data fitted with one site competition non-linear regression analysis by Prism 4.02 using the Kd values reported above.

[2] = target: human CB1 receptor (Homo sapiens (Human), UniProt P21554); assay: Membrane competition binding assay with [3H]-CP 55,940, CHO-CB1 membranes; conditions: CHO-CB1 cellular membranes, 2.5 nM [3H]-CP 55,940; read-out: Competition Binding Assay CB1 Receptor Ki
Description: as §1, §2, §3, §4, §5, §6

[3] = tested on: closed head injury (CHI); assay: Closed head injury (CHI) model, neurological severity score, Sabra mice; assay type: in vivo; conditions: for most effective dose (recovery, ΔNSS): Sabra mice, i.p. 1 h after CHI, followed 21 days
Method: The study was conducted according to the guidelines of the Institutional Animal Care Committee of the Hebrew University. Male Sabra mice weighing 35 to 50 g were used in all experiments. Animals were kept under controlled light conditions with a 12 h/12 h light/dark cycle. Experimental closed head injury (CHI) was induced using a modified weight drop device developed in our laboratory as described previously (Chen et al., 1996). At 1 h after CHI, the functional status of the mice was evaluated according to a set of 10 neurobehavioral tasks, namely the neurological severity score (NSS). This score is based on the ability of the mice to perform 10 different tasks (Beni-Adani et al., 2001) that evaluate their motor ability, balance, and alertness. One point is given for failing to perform a task. […] A score of 10 reflects maximal neurologic impairment, and a decrease of NSS during the recovery period indicates partial recovery of function.
Data was analyzed using the Prism 4.02 programme (GraphPad Software, San Deigo, Calif., USA). The data are expressed as mean±SEM and statistical significance was assessed with one way analysis of variance (ANOVA) followed by a Dunnett's post-hoc analysis for TNF-α levels. Nonparametric NSS values were compared between the two groups at each time point.
In this study four groups of mice were subjected to CHI (n=10/group and control n=9), after which the following agents were administered: • Group 1 (Control): Vehicle only (ethanol:cremophor:saline at ratio of 1:1:18), 1 h after CHI. • Group 2: HU-910, 0.1 mg/kg, dissolved in vehicle (1:1:18 ethanol:cremophor:saline), i.p. 1 h after CHI. • Group 3: HU-910, 1.0 mg/kg, dissolved in vehicle (1:1:18 ethanol:cremophor:saline), i.p. 1 h after CHI. • Group 4: HU-910, 10.0 mg/kg, dissolved in vehicle (1:1:18 ethanol:cremophor:saline), i.p. 1 h after CHI.
In this study four groups of mice were subjected to CHI (n=9/group), after which the following agents were administered: • Group 1 (Control): Vehicle only (ethanol:cremophor:saline at ratio of 1:1:18), 1 h after CHI. • Group 2: HU-910, 10 mg/kg, dissolved in vehicle (1:1:18 ethanol:cremophor:saline), i.p. 1 h after CHI. • Group 3: Specific CB2 antagonist SR144528 (N-[(1S)-endo-1,3,3-trimethylbicyclo[2.2.1]heptan-2-yl]-5-(4-chloro-3-methylphenyl)-1-(4-methylbenzyl)pyrazole-3 carboxamide), (see M. Rinaldi-Carmona, et al. J. Pharmacol. Exp. Ther. 284 (1998) 644-650), 1 mg/kg, i.p. 1 h after CHI. • Group 4: Specific CB2 antagonist (SR144528, N-[(1S)-endo-1,3,3-trimethylbicyclo[2.2.1]heptan-2-yl]-5-(4-chloro-3-methylphenyl)-1-(4-methylbenzy)pyrazole-3 carboxamide), 1 mg/kg, i.p. 1 h after CHI and HU-910 10 mg/kg administered 10 min after administration of antagonist.
In this study four groups of mice were subjected to CHI (n=7-8/group), after which the following agents were administered: • Group 1 (Control): Vehicle only (Dimethyl Sulfoxide (DMSO): Tween 80: Saline at ratio of 1:1:18), i.p. 1 h after CHI. • Group 2: HU-910, 10 mg/kg, dissolved in Vehicle, i.p. 1 h after CHI. • Group 3: Specific CB2 antagonist/inverse agonist AM630 (6-Iodo-2-methyl-1-[2-(4-morpholinyl)ethyl]-1H-indol-3-yl](4-methoxyphenyl)methanone) (Ross et al. 1999)), dissolved in Vehicle, 1 mg/kg, i.p. 1 h after CHI and HU-910, dissolved in Vehicle, 10 mg/kg administered 10 min after administration of antagonist/inverse agonist. • Group 4: Specific CB2 antagonist/inverse agonist AM630 (6-Iodo-2-methyl-1-[2-(4-morpholinyl)ethyl]-1H-indol-3-yl](4-methoxyphenyl)methanone), dissolved in Vehicle, 1 mg/kg, i.p. 1 h after CHI

human CB1 receptor, sequence (P21554 whole entry): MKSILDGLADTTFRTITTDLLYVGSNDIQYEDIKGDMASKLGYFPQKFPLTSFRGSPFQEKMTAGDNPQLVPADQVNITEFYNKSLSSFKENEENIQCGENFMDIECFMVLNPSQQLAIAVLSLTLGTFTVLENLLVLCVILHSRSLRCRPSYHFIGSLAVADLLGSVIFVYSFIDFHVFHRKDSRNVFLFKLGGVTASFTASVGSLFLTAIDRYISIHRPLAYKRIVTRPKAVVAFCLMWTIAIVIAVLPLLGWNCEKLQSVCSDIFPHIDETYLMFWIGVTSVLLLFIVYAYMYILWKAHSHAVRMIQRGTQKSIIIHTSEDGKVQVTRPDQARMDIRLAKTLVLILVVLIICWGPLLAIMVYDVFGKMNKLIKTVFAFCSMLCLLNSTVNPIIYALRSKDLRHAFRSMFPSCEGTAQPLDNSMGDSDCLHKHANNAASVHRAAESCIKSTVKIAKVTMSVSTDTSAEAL

Q: How did the Ki [1] turn out when `CCCCCCC(C)(C)c1cc(OC)c(C2=C[C@H]3CC[C@]2(CO)C3(C)C)c(OC)c1` [HU-910, (1S,4R)-(2-(2,6-dimethoxy-4-(2-methyloctan-2-yl)phenyl)-7,7-dimethylbicyclo[2.2.1]hept-2-en-1-yl)methanol] was run?
A: The Ki was 0.006 µM.

Q: What about the Ki [2] of the same compound?
A: Its Ki is 1.37 µM.

Q: And the “beneficial effect on ΔNSS in the presence of AM630” value ([3]; AM630 1 mg/kg i.p. 1 h after CHI, HU-910 10 mg/kg 10 min later, 1 h to 28 days)?
A: The value was “reduced to a similar extent”.

Q: What about the “extent of recovery ΔNSS=NSS(1 h)−NSS(t)” value ([3]; HU-910 10 mg/kg i.p. 1 h after CHI, days 5 and 7 post injury, vs vehicle or 0.1 and 1 mg/kg) of the same compound?
A: The value was “significant greater recovery”.

Q: What about the “beneficial effect on ΔNSS in the presence of SR144528” value ([3]; SR144528 1 mg/kg i.p. 1 h after CHI, HU-910 10 mg/kg 10 min later) of the same compound?
A: The value was “reduced to a similar extent”.

Q: What about the “most effective dose (recovery, ΔNSS)” value [3] of the same compound?
A: The value was 10 mg/kg.

Q: `CCCCCCC(C)(C)c1cc(OC)c(C2=C[C@H]3CC[C@]2(C(=O)O)C3(C)C)c(OC)c1` [HU-914, (1S,4R)-2-(2,6-dimethoxy-4-(2-methyloctan-2-yl)phenyl)-7,7-dimethylbicyclo[2.2.1]hept-2-ene-1-carboxylic acid] was tested. Which Ki [1] did it give?
A: The Ki was 1.5 µM.

Q: What about the Ki [2] of the same compound?
A: The Ki was greater than 50 µM.

Q: And the “recovery, Neurological Severity Score (ΔNSS)” value ([3]; HU-914 5 mg/kg i.p. 1 h after CHI, starting at 3 days post injury, vs vehicle or 10 and 20 mg/kg)?
A: Its value is “significant greater recovery”.

Q: What about the “recovery ΔNSS in the presence of SR144528” value ([3]; SR144528 1 mg/kg i.p. 1 h after CHI, HU-914 5 mg/kg 10 min later, 24 h to 28 day) of the same compound?
A: Its value is “abolished and reduced to a similar extent as in the control group”.

Q: And the “most effective dose (recovery, ΔNSS)” value [3]?
A: Its value is 5 mg/kg.

From US9365534B2, “Arylated camphenes, processes for their preparation and uses thereof” (Yissum Research Development Company of the Hebrew …, priority 2009, dated 2016)
